Results: US20260272952A1, “CANNABINOIDS FOR TREATING NEUROINFLAMMATION” (Lundquist Institute for Biomedical Innovation at …, priority 2022, published 2026)

System: MPS IIIA neurons
Test: GABARAPL2 western blot in iPSC-derived cortical neurons treated with CBD
Assay type: cell-based, human
Conditions: CBD 1 μM and 5 μM, cortical neurons from MPS IIIA patients' iPSCs, with or without Bafilomycin A1 200 nM
Method: HCNT: human health controls; MPS IIIA: MPS IIIA forebrain neurons.
Cortical neurons differentiated from healthy control and MPS IIIA patients' iPSCs. […] GABARAPL2, a protein which involves in autophagy, was measured in a western blot assay (see FIG. 3).

In the case of Cannabidiol [CBD], the GABARAPL2 accumulation is reported as “decreases”.
